The test system of one assay is HCT-116. The assay can be described thus: Cytotoxicity against human HCT116 cells after 72 hrs. The assay is classed as functional, cell-based. To be noted: HCT-116, 72 h.
A further assay deals with HeLa. The assay can be described thus: Cytotoxicity against human HeLa cells after 72 hrs. The assay is classed as functional, cell-based.

Experimental findings from ChEMBL document CHEMBL1152412, “Isolation, biomimetic synthesis, and cytotoxic activity of bis(pseudopterane) amines” (J Nat Prod, 2009) are described below.

Some results are limits rather than exact numbers.

`C=C(C)[C@H]1C2=CC(C(=O)OC)=C(C[C@H](C(=C)C)[C@@H](O)[C@@H](N[C@H]3C4=C[C@@H](OC4=O)[C@@H](C(=C)C)C4=CC(C(=O)OC)=C(C[C@H](C(=C)C)[C@H]3O)O4)C3=C[C@H]1OC3=O)O2` [BIS(GORGIACEROL)AMINE]: the IC50 (as a rule, the concentration that gives 50% inhibition) in the assay on HCT-116 is 28 µM; in the assay on HeLa, greater than 100 µM.
The matching figures for `C=C(C)[C@H]1C2=CC(C(=O)OC)=C(C[C@H](C(=C)C)[C@H](O)/C=C3\C(=O)O[C@@H]1[C@@H]3N[C@H]1C3=C[C@@H](OC3=O)[C@@H](C(=C)C)C3=CC(C(=O)OC)=C(C[C@H](C(=C)C)[C@H]1O)O3)O2` [BIS(PSEUDOPTERANE)AMINE]: 4 µM and 42 µM.
